Laboratory results reported in PubChem BioAssay AID328 (DTP/NCI, 2004).
Values joined by “and” are separate entries in the source; they are usually repeats but may differ in a detail not shown here. Equal values may be shown once. Inconclusive results and toxic doses are left out.

Tested on: BDF1 mice, P388 leukemia ip, median survival T/C
Test: NCI In Vivo Anticancer Drug Screen. Data for tumor model P388 Leukemia (intraperitoneal) in B6D2F1 (BDF1) mice
Conditions: endpoint: median survival time, higher = longer survival
Outline: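 Antitumour effect was judged in vivo: survival in drug-treated mice, normalised to that of vehicle-dosed controls, gives the reported T/C.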

[1] = dose: 100.0 mg/kg/injection, schedule: Q04DX003 (ip), vehicle: Klucel (hydroxypropylcellulose) (HPC)
[2] = dose: 100.0 mg/kg/injection, schedule: Q01DX009 (ip), vehicle: saline with Tween-80
[3] = dose: 100.0 mg/kg/injection, schedule: Q04DX003 (ip), vehicle: saline with Tween-80
[4] = dose: 200.0 mg/kg/injection, schedule: Q04DX003 (ip), vehicle: saline with Tween-80
[5] = dose: 400.0 mg/kg/injection, schedule: Q04DX003 (ip), vehicle: saline with Tween-80
[6] = dose: 12.5 mg/kg/injection, schedule: Q01DX009 (ip), vehicle: saline with Tween-80
[7] = dose: 25.0 mg/kg/injection, schedule: Q01DX009 (ip), vehicle: saline with Tween-80
[8] = dose: 50.0 mg/kg/injection, schedule: Q01DX009 (ip), vehicle: saline with Tween-80
[9] = dose: 50.0 mg/kg/injection, schedule: Q01DX009 (ip), vehicle: Klucel (hydroxypropylcellulose) (HPC)
[10] = dose: 50.0 mg/kg/injection, schedule: Q01DX009 (ip), vehicle: saline
[11] = dose: 100.0 mg/kg/injection, schedule: Q01DX009 (ip), vehicle: saline
[12] = dose: 100.0 mg/kg/injection, schedule: Q04DX003 (ip), vehicle: saline
[13] = dose: 200.0 mg/kg/injection, schedule: Q01DX009 (ip), vehicle: saline
[14] = dose: 200.0 mg/kg/injection, schedule: Q04DX003 (ip), vehicle: saline
[15] = dose: 400.0 mg/kg/injection, schedule: Q01DX009 (ip), vehicle: saline
[16] = dose: 400.0 mg/kg/injection, schedule: Q04DX003 (ip), vehicle: saline
[17] = dose: 50.0 mg/kg/injection, schedule: Q04DX003 (ip), vehicle: saline
[18] = dose: 12.5 mg/kg/injection, schedule: Q01DX009 (ip), vehicle: Klucel (hydroxypropylcellulose) (HPC)
[19] = dose: 25.0 mg/kg/injection, schedule: Q01DX009 (ip), vehicle: Klucel (hydroxypropylcellulose) (HPC)

CCCCCCCCCCCCCCCCCC[n+]1cccc(C(=O)N2CCOCC2)c1
T/C (dose: 1.0 mg/kg/injection, schedule: Q01DX009 (ip), vehicle: saline with Tween-80): 108 % of control
T/C (dose: 2.0 mg/kg/injection, schedule: Q01DX009 (ip), vehicle: Klucel (hydroxypropylcellulose) (HPC)): 100 % of control
T/C (dose: 2.0 mg/kg/injection, schedule: Q01DX009 (ip), vehicle: saline with Tween-80): 95 % of control
T/C (dose: 4.0 mg/kg/injection, schedule: Q01DX009 (ip), vehicle: Klucel (hydroxypropylcellulose) (HPC)): 90 % of control
T/C (dose: 4.0 mg/kg/injection, schedule: Q01DX009 (ip), vehicle: saline with Tween-80): 100 % of control
T/C (dose: 8.0 mg/kg/injection, schedule: Q01DX009 (ip), vehicle: Klucel (hydroxypropylcellulose) (HPC)): 109 % of control
T/C (dose: 8.0 mg/kg/injection, schedule: Q01DX009 (ip), vehicle: saline with Tween-80): 108 % of control
T/C (dose: 16.0 mg/kg/injection, schedule: Q01DX009 (ip), vehicle: Klucel (hydroxypropylcellulose) (HPC)): 104 % of control
T/C (dose: 16.0 mg/kg/injection, schedule: Q01DX009 (ip), vehicle: saline with Tween-80): 121 % of control
T/C (dose: 25.0 mg/kg/injection, schedule: Q04DX003 (ip), vehicle: Klucel (hydroxypropylcellulose) (HPC)): 100 % of control
T/C (dose: 32.0 mg/kg/injection, schedule: Q01DX009 (ip), vehicle: Klucel (hydroxypropylcellulose) (HPC)): 113 % of control
T/C (dose: 50.0 mg/kg/injection, schedule: Q04DX003 (ip), vehicle: Klucel (hydroxypropylcellulose) (HPC)): 109 % of control
T/C [1]: 90 % of control

O=P(Oc1cccc2ccccc12)(N1CC1)N1CC1
T/C [2]: 181 % of control
T/C [3]: 122 % of control
T/C (dose: 150.0 mg/kg/injection, schedule: Q01DX009 (ip), vehicle: saline with Tween-80): 231 % of control
T/C [4]: 150 % of control
T/C (dose: 264.0 mg/kg/injection, schedule: Q04DX003 (ip), vehicle: saline with Tween-80): 200 % of control
T/C [5]: 181 % of control and 220 % of control

Cc1cc(-c2ccc(Br)cc2)[n+](C)n1C
T/C [6]: 102 % of control
T/C [7]: 107 % of control
T/C [8]: 111 % of control

O=S1(=O)CCN(C2CCCCCCC2)CC1
T/C [9]: 115 % of control
T/C (dose: 100.0 mg/kg/injection, schedule: Q01DX009 (ip), vehicle: Klucel (hydroxypropylcellulose) (HPC)): 116 % of control
T/C (dose: 200.0 mg/kg/injection, schedule: Q01DX009 (ip), vehicle: Klucel (hydroxypropylcellulose) (HPC)): 104 % of control

COC1N(C2CC(O)C(CO)O2)C(=O)NC(=O)C1(F)Br (centres undefined)
T/C (dose: 5.0 mg/kg/injection, schedule: Q01DX009 (ip), vehicle: saline): 90 % of control
T/C (dose: 10.0 mg/kg/injection, schedule: Q01DX009 (ip), vehicle: saline): 109 % of control
T/C (dose: 20.0 mg/kg/injection, schedule: Q01DX009 (ip), vehicle: saline): 109 % of control
T/C (dose: 40.0 mg/kg/injection, schedule: Q01DX009 (ip), vehicle: saline): 122 % of control
T/C [10]: 111 % of control
T/C [11]: 113 % of control
T/C [12]: 104 % of control
T/C [13]: 106 % of control
T/C [14]: 122 % of control
T/C [15]: 94 % of control
T/C [16]: 150 % of control

COc1cc2c(cc1OCc1ccccc1)C(C#N)N(C(=O)c1ccccc1)C=C2 (centres undefined)
T/C (dose: 25.0 mg/kg/injection, schedule: Q01DX009 (ip), vehicle: saline): 109 % of control
T/C (dose: 25.0 mg/kg/injection, schedule: Q04DX003 (ip), vehicle: saline): 97 % of control
T/C [10]: 100 % of control
T/C [17]: 95 % of control
T/C [11]: 97 % of control
T/C [12]: 97 % of control
T/C [13]: 98 % of control
T/C [14]: 88 % of control
T/C [15]: 100 % of control
T/C [16]: 94 % of control

COc1c(C#N)c2c(c(OC)c1OC)-c1ccc(OC)c(=O)cc1[C@@H](NC(C)=O)CC2
T/C (dose: 6.25 mg/kg/injection, schedule: Q01DX009 (ip), vehicle: Klucel (hydroxypropylcellulose) (HPC)): 119 % of control

Oc1ccccc1OB(Oc1ccccc1O)N(CCCl)CCCl
T/C (dose: 8.1 mg/kg/injection, schedule: Q01DX009 (ip), vehicle: Klucel (hydroxypropylcellulose) (HPC)): 122 % of control
T/C (dose: 16.5 mg/kg/injection, schedule: Q04DX003 (ip), vehicle: saline): 86 % of control
T/C (dose: 18.5 mg/kg/injection, schedule: Q01DX009 (ip), vehicle: Klucel (hydroxypropylcellulose) (HPC)): 170 % of control
T/C (dose: 24.75 mg/kg/injection, schedule: Q04DX003 (ip), vehicle: saline): 150 % of control
T/C (dose: 28.12 mg/kg/injection, schedule: Q01DX009 (ip), vehicle: Klucel (hydroxypropylcellulose) (HPC)): 190 % of control and 195 % of control
T/C (dose: 40.0 mg/kg/injection, schedule: Q01DX009 (ip), vehicle: Klucel (hydroxypropylcellulose) (HPC)): 165 % of control
T/C (dose: 49.5 mg/kg/injection, schedule: Q04DX003 (ip), vehicle: saline): 150 % of control
T/C [17]: 119 % of control

Cc1ccc(NC(=O)N(CCCl)N=O)c(C)c1
T/C (dose: 6.25 mg/kg/injection, schedule: Q01DX009 (ip), vehicle: saline with Tween-80): 90 % of control
T/C [6]: 159 % of control
T/C [7]: 118 % of control

Cc1ccc2cc3c(ccc4ccccc43)c3c2c1CC3
T/C (dose: 7.4 mg/kg/injection, schedule: Q01DX009 (ip), vehicle: saline with Tween-80): 117 % of control
T/C [7]: 122 % of control
T/C [8]: 154 % of control
T/C (dose: 75.0 mg/kg/injection, schedule: Q01DX009 (ip), vehicle: saline with Tween-80): 122 % of control
T/C (dose: 88.0 mg/kg/injection, schedule: Q04DX003 (ip), vehicle: saline with Tween-80): 118 % of control
T/C [2]: 162 % of control
T/C (dose: 132.0 mg/kg/injection, schedule: Q04DX003 (ip), vehicle: saline with Tween-80): 118 % of control
T/C (dose: 300.0 mg/kg/injection, schedule: Q01DX009 (ip), vehicle: saline with Tween-80): 163 % of control
T/C (dose: 300.0 mg/kg/injection, schedule: Q04DX003 (ip), vehicle: saline with Tween-80): 118 % of control

Nc1nc2ccccc2c(=O)n1C(=O)c1ccccc1
T/C [3]: 93 % of control
T/C [4]: 94 % of control
T/C [5]: 116 % of control

COc1ccc2c(c1)CC(=CO)CC2=O.COc1ccc2c(c1)CC/C(=C/O)C2=O.[Cu]
T/C (dose: 25.0 mg/kg/injection, schedule: Q04DX003 (ip), vehicle: saline with Tween-80): 100 % of control
T/C (dose: 50.0 mg/kg/injection, schedule: Q04DX003 (ip), vehicle: saline with Tween-80): 110 % of control
T/C [3]: 90 % of control

CC1C/C(=C\NC(N)=O)C(=O)O1 (centres undefined)
T/C (dose: 100.0 mg/kg/injection, schedule: Q04DX003 (ip), vehicle: water): 103 % of control
T/C (dose: 200.0 mg/kg/injection, schedule: Q04DX003 (ip), vehicle: water): 102 % of control
T/C (dose: 400.0 mg/kg/injection, schedule: Q04DX003 (ip), vehicle: water): 103 % of control

CCCCCCCCOC(=O)c1[nH]cnc1/N=N\N(C)C
T/C [18]: 95 % of control
T/C [19]: 95 % of control
T/C [9]: 90 % of control

N#Cc1sc2ccccc2c1CBr
T/C [18]: 104 % of control
T/C (dose: 18.75 mg/kg/injection, schedule: Q04DX003 (ip), vehicle: Klucel (hydroxypropylcellulose) (HPC)): 108 % of control
T/C [19]: 108 % of control
T/C (dose: 37.5 mg/kg/injection, schedule: Q04DX003 (ip), vehicle: Klucel (hydroxypropylcellulose) (HPC)): 108 % of control

CCCCCCCCC(O)CCCC (centres undefined)
T/C [1]: 91 % of control
T/C (dose: 200.0 mg/kg/injection, schedule: Q04DX003 (ip), vehicle: Klucel (hydroxypropylcellulose) (HPC)): 91 % of control
T/C (dose: 400.0 mg/kg/injection, schedule: Q04DX003 (ip), vehicle: Klucel (hydroxypropylcellulose) (HPC)): 100 % of control

CC(C)c1ccc(O)c(=O)cc1
T/C (dose: 40.0 mg/kg/injection, schedule: Q01DX010 (ip), vehicle: carboxymethylcellulose (CMC)): 95 % of control
T/C (dose: 80.0 mg/kg/injection, schedule: Q01DX010 (ip), vehicle: carboxymethylcellulose (CMC)): 100 % of control
T/C (dose: 160.0 mg/kg/injection, schedule: Q01DX010 (ip), vehicle: carboxymethylcellulose (CMC)): 100 % of control
